This note sets out measurements from patent US20230043863A1, “HETEROAROMATIC DERIVATIVES FOR USE AS REGULATOR, PREPARATION METHOD THEREFOR AND USE THEREOF” (JIANGSU HANSOH PHARMACEUTICAL GROUP CO., LTD., priority 2018, published 2023).

Where two headings read alike, the source gives them in different places. Where only a bound is given, the exact number is not on record here.

Series [1] has as its target T1, JAK3 (Homo sapiens, UniProt P52333).
T1 sequence (P52333 1-1124): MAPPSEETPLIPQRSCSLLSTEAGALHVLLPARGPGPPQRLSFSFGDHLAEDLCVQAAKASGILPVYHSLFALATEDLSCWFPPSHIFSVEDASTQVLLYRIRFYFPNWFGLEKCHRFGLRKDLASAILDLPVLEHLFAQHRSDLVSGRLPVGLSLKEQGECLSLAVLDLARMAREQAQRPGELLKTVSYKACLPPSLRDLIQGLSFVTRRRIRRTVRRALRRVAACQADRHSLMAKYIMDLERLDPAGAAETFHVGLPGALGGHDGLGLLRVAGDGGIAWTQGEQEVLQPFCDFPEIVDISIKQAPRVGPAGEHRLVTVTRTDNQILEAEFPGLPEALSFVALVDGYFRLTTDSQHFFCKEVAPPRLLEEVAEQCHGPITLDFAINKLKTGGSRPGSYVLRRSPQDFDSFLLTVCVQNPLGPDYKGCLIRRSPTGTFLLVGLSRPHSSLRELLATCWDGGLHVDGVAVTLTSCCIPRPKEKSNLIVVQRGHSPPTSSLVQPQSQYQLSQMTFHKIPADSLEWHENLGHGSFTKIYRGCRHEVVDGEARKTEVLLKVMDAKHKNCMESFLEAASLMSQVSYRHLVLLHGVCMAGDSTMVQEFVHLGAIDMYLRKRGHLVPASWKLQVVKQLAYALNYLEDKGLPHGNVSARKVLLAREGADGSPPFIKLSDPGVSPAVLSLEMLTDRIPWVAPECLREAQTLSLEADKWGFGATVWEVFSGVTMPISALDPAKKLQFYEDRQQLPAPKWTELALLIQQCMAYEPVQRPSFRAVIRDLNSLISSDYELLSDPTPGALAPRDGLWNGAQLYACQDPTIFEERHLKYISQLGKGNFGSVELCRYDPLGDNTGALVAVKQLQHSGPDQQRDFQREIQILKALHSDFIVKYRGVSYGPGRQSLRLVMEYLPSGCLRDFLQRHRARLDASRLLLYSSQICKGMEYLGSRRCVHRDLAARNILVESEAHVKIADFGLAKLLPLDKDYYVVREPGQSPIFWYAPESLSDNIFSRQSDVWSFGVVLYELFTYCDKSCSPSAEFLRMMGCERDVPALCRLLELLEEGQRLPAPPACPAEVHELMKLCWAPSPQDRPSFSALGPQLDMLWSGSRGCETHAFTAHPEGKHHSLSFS
Nature of the series: JAK kinase activity inhibition, TR-FRET (JAK3). Type of series: biochemical. The following applies: TR-FRET kinase assay. Here is the method: (§1) Experimental objective: The objective of this test is to test the inhibitory effect of the compound on JAK kinase activity.
(§2) Experimental method: the fluorescence resonance energy transfer (TR-FRET) method was used to test the inhibitory effect of the compound on JAK kinase activity, and the half inhibitory concentration IC50 of the compound on JAK kinase activity was obtained.
(§3) Kinase reaction was carried out in a white 384-well plate (PerkinElmer). 1-5 μL of different concentrations of the compound diluted with DMSO and ddH2O was added into each well, and 1-5 μL of the corresponding solvent was added to the positive control wells, followed by addition of 0.1-20 nM JAK kinase solution diluted with 1-5 μL of kinase buffer (HEPES 50-250 mM, MgCl2 5-20 mM, etc.) was added to each well. 1-5 μL of kinase buffer was added to the negative control well. 1-5 μL of substrate mixture containing peptide substrate and ATP was added. The plate was incubated at room temperature for 0.5-5 hours. […], EDTA and detection solution containing labeled antibody was added, and then the plate was incubated at room temperature for another 1-24 hours. The fluorescence signal value at about 620 nm and 665 nm of each well was measured by BioTek Synergy H1 plate reader, and the inhibition rate was calculated by the fluorescence signal value. According to the inhibition rate of different concentrations, the IC50 of the compound was obtained by curve fitting.
(§4) The percentage inhibition data of the wells treated with the compound was calculated with the positive control wells (DMSO control wells) and negative control wells (no kinase added) on the plate {% inhibition rate=100-[(test compound value-negative control value)]/(Positive control value-negative control value)×100}. IC50 value was calculated by using GraphPad prism to fit the data of different concentrations and corresponding percentage inhibition rates to a 4-parameter non-linear logic formula.

Series [2] deals with JAK2 (Homo sapiens, UniProt O60674). Nature of the series: JAK kinase activity inhibition, TR-FRET (JAK2). Type of series: biochemical. Particulars: TR-FRET kinase assay. Here is the method: as §1, §2, §3, §4
Chain of JAK2 (O60674 whole entry): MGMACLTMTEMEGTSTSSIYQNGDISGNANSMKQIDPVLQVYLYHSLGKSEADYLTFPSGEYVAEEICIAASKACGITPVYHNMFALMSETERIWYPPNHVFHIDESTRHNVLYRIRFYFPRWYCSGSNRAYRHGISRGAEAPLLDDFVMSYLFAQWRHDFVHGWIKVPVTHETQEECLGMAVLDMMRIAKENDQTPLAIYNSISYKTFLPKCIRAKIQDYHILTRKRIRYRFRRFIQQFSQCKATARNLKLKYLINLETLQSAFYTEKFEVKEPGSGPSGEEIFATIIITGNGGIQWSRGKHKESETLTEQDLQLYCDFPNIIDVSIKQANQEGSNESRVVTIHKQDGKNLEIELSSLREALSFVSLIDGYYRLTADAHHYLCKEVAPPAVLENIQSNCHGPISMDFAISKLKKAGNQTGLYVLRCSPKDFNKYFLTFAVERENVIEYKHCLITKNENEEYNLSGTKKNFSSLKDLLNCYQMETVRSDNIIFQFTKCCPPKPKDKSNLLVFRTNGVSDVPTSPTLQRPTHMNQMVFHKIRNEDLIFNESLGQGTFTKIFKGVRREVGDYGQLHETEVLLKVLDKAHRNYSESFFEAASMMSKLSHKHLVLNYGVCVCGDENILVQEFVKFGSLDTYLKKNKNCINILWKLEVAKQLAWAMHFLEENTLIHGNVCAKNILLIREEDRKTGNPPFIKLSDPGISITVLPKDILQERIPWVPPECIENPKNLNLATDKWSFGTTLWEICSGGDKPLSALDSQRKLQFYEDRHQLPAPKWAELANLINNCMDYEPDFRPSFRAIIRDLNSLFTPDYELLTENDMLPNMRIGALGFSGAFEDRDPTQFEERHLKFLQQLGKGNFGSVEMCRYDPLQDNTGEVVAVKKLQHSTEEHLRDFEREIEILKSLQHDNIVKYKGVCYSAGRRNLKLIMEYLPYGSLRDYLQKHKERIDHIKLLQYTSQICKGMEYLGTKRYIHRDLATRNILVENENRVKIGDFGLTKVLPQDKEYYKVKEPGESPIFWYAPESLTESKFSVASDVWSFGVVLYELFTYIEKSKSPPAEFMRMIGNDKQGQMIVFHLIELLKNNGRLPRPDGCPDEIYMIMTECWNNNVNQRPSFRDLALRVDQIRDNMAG
A general note: Time-resolved FRET reads energy transfer from a long-lived donor to a nearby acceptor.

For series [3], the target named is TYK2 (Homo sapiens, UniProt P29597). Nature of the series: JAK kinase activity inhibition, TR-FRET (TYK2). The class given is biochemical. The following applies: TR-FRET kinase assay. The procedure, abridged:
(§5)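 Steps: compound dilutions added; JAK kinase (0.1-20 nM) in HEPES/MgCl2 buffer added; peptide substrate and ATP mix started the reaction, 0.5-5 h at room temperature; EDTA and labeled antibody added, 1-24 h further. IC50 derived from 620/665 nm signals by four-parameter nonlinear fitting.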

The target of series [4] is JAK1 (Homo sapiens, UniProt P23458). Nature of the series: JAK kinase activity inhibition, TR-FRET (JAK1). The class given is biochemical. The following applies: TR-FRET kinase assay. The procedure, abridged: as §5
Chain of JAK1 (P23458 whole entry): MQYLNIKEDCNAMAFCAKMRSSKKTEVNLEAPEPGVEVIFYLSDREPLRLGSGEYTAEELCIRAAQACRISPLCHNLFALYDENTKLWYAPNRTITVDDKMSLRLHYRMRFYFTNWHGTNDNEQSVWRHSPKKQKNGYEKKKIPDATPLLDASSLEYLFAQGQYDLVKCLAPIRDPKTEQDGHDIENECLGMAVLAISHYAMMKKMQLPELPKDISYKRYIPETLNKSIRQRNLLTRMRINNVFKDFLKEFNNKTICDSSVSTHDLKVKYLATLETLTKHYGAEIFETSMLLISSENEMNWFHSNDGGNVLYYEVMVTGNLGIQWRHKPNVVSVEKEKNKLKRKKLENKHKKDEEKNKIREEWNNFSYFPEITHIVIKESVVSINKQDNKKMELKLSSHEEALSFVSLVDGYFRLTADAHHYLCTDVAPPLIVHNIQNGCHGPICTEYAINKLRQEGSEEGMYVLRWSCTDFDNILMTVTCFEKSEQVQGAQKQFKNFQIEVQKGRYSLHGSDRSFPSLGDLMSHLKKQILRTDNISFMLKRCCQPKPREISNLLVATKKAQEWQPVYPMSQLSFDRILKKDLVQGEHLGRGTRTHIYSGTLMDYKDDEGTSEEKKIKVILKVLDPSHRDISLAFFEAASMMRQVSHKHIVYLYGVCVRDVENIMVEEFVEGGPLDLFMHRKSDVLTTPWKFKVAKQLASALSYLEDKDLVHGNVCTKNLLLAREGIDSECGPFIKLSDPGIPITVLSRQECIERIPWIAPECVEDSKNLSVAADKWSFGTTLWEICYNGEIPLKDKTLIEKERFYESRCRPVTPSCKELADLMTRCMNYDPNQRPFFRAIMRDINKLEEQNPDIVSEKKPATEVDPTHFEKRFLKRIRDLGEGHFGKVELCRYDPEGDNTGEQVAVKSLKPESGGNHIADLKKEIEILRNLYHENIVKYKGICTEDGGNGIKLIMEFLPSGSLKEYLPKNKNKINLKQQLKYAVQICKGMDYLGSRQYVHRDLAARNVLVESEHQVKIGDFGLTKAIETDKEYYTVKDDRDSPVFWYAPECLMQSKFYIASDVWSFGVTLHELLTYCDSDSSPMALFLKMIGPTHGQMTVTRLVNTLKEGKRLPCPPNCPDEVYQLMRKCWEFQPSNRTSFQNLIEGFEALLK
Series [5] concerns JAK-STAT signal pathway of U266 cells. The experiment in a line: Inhibition of cellular JAK-STAT signal pathway (STAT3 phosphorylation) in U266 cells. Type of series: cell-based, human. The following applies: Homo sapiens, U-266, INF-a 1000 U/mL stimulation. The procedure, abridged:
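U266 cells (100-300 K/well) preincubated 2 h at room temperature with serially diluted compound, then stimulated 15 min with IFN-α at 1000 U/mL final. After lysis, STAT3 phosphorylation read by LANCE Ultra TR-FRET (Eu antibody 0.5 nM, ULight antibody 5 nM, overnight) at 665 nm; IC50 from 4-parameter fit of inhibition versus DMSO and negative controls.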

Series [6] can be described thus: Balb/C mouse pharmacokinetics (plasma, colon, ileum). The class given is in vivo. Particulars: male, po, Balb/C mice, p.o. 5 mg/kg; for Cmax: read-out: Blood concentration Cmax; for AUC(0-t): read-out: Curve area AUC0-t; for AUC(0-inf): read-out: Curve area AUC0-∞; for half-life: read-out: Half life period t1/2 (converted); for MRT: read-out: Mean detention time MRT; for Tmax: read-out: Time to peak tmax. The text has this:
Balb/C mouse was used as the test animal, the pharmacokinetic behavior in mice (plasma and colon, ileum tissue) was studied after oral administering the embodiment 1, embodiment 60, embodiment 169, embodiment 170, embodiment 171, embodiment 179, embodiment 191, embodiment 213, embodiment 214, embodiment 237, embodiment 238, embodiment 244, embodiment 246, embodiment 247, embodiment 257, embodiment 260, embodiment 262, embodiment 263, embodiment 267, embodiment 277, embodiment 278, embodiment 279, embodiment 288, embodiment 295, embodiment 299 and embodiment 301 at a dose of 5 mg/kg. After analyzing the drug concentration in the colon and ileum, the ratio of the drug concentration in the colon to that in ileum, and the ratio of the drug concentration in the colon to that in the plasma, the compounds with excellent PK were selected for further research.
12 Balb/C mice in each group, male, Shanghai Jiesjie Experimental Animal Co., Ltd., animal production license number (SCXK (Shanghai) 2013-0006 N0.311620400001794).
12 Balb/C mice in each group, male; p.o. after one night fast; the dose was 5 mg/kg; the administration volume was 10 mL/kg.
At 0, 0.5, 1, 2, 3, 5 and 7 hours before and after the administration, the mice were executed by CO2 and 0.2 mL of blood was collected from the heart, placed in an EDTA-K2 test tube, and centrifuged at 6000 rpm at 4° C. for 6 minutes to separate the plasma, which was then stored at −80° C. The ileum was taken close to the cecum end with a length of about 4-5 cm, and the colon was also taken close to the cecum end with a length of about 2-3 cm, weighed and placed in a 2 mL centrifuge tube, then stored at −80° C.
1) 40 uL of plasma sample was precipitated by adding 160 uL of acetonitrile, mixed and centrifuged at 3500×g for 5-20 minutes.
2) 30 μL of plasma and intestinal homogenate sample were precipitated by adding 90 of acetonitrile containing internal standard (100 ng/mL), mixed and centrifuged at 13000 rpm for 8 minutes.
3) 70 μL of the supernatant solution after treatment was collected and 70 μL of water was added thereto, vortexed and mixed for 10 minutes, and then 20 μL was collected to analyze the concentration of the test compound by LC/MS/MS. LC/MS/MS analysis instrument: AB Sciex API 4000 Qtrap.
Liquid phase conditions: Shimadzu LC-20AD Pump
Chromatographic column: Agilent ZORBAX XDB-C18 (50×2.1 mm, 3.5 μm) mobile phase: 0.1% formic acid aqueous solution as A solution, acetonitrile as B solution
Elution time: 0-4.0 minutes, the eluent is as follows:
The main pharmacokinetic parameters were calculated with WinNonlin 6.1, and the results of mouse pharmacokinetic experiments are shown in Table 3:
NA refers to none detected or not being tested (the detection limit of blood concentration was 1 ng/mL, when the Cmax in the blood test is NA, then NA in the blood test index refers to none detected; when the Cmax in the blood test is higher than the quantitative limit 1 ng/mL, then NA in the blood test index refers to not being tested; NA in the tissues (colon and ileum) refers to not being tested).

Chain of TYK2 (P29597 whole entry): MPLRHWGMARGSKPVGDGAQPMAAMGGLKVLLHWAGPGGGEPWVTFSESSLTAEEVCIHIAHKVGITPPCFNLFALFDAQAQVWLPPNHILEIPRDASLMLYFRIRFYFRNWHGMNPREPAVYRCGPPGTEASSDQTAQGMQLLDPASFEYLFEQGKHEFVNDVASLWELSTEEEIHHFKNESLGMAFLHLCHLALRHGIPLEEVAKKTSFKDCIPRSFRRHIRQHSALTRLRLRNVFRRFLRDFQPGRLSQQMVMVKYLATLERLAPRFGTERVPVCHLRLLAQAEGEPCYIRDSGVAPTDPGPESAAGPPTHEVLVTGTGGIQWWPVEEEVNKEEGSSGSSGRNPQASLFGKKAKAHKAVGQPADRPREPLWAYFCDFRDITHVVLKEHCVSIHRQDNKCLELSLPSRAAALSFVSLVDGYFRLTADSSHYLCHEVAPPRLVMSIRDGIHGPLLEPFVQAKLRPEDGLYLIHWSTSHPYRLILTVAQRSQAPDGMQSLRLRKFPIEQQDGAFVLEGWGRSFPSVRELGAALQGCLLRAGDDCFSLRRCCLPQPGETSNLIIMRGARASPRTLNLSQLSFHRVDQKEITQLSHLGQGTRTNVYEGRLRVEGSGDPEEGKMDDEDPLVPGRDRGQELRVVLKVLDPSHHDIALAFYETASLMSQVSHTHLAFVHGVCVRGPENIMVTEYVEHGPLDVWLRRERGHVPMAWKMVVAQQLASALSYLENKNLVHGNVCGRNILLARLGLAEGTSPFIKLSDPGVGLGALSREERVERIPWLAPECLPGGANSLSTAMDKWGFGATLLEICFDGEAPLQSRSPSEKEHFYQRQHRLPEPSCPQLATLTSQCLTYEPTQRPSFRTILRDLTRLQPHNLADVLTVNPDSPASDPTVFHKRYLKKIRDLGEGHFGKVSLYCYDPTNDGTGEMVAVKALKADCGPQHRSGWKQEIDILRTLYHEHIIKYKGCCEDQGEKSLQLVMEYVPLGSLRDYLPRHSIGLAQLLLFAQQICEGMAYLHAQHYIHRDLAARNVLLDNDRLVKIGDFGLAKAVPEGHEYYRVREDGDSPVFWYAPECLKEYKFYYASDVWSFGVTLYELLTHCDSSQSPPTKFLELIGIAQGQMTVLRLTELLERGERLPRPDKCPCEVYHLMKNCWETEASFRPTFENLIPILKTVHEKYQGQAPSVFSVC

For `N#CCCN1[C@@H]2CC[C@H]1C[C@H](Nc1nc(Nc3ncc(CO)s3)cc3ncccc13)C2` [Embodiment 2], the IC50 in series [1] turned out to be 8.95 nM; in series [2] it was 0.53 nM; in series [3] it was 2.3 nM; in series [4] it was 0.11 nM.

With `N#CCCN1[C@@H]2CC[C@H]1C[C@H](Nc1nc(Nc3cnccn3)cc3ncccc13)C2` [Embodiment 29, 3-((3-exo)-3-((7-(pyrazin-2-ylamino)-1,6-diazanaphthalen-5-yl)amino)-8-azabicyclo[3.2.1]oct-8-yl)propionitrile], the IC50 was more than 100 nM in series [1], more than 100 nM in series [2], 47.3 nM in series [3] and 44.2 nM in series [4].

Consider `Cc1cc(Nc2cc3ncccc3c(N3CC4CCC(C3)N4CCC#N)n2)n[nH]1` [Embodiment 109, 3-(3-(7-((5-methyl-1H-pyrazol-3-yl)amino)-1,6-diazanaphthalen-5-yl)-3,8-diazabicyclo[3.2.1]oct-8-yl)propionitrile], for which the IC50 in series [1] is 25.9 nM; in series [2], 6.27 nM; in series [3] it was 33.9 nM; in series [4], 7.85 nM.

As for `Cc1cc(Nc2nc(N[C@@H]3C[C@H]4CC[C@@H](C3)N4CCC#N)nc3cnccc23)n[nH]1` [Embodiment 173, 3-((3-exo)-3-((4-((5-methyl-1H-pyrazol-3-yl)amino)pyrido[3,4-d]pyrimidin-2-yl)amino)-8-azabicyclo[3.2.1]oct-8-yl)propionitrile], the IC50 was 26.3 nM in series [1], 1.15 nM in series [2], 0.84 nM in series [3] and 1.07 nM in series [4].

As to `Cc1cc(Nc2nc(N[C@@H]3C[C@H]4CC[C@@H](C3)N4CCC#N)nc3cc(-c4cnn(C)c4)ccc23)n[nH]1` [Embodiment 186, 3-((3-exo)-3-((4-((5-methyl-1H-pyrazol-3-yl)amino)-7-(1-methyl-1H-pyrazol-4-yl)quinazolin-2-yl)amino)-8-azabicyclo[3.2.1]oct-8-yl)propionitrile], the IC50 in series [1] came out at 14.7 nM; in series [2], 0.73 nM; in series [3] it was 0.2 nM; in series [4], 0.12 nM.

Consider `Cc1cc(Nc2nc(NC3CCN(CCC#N)CC3)nc3sccc23)n[nH]1` [Embodiment 301, 3-(4-((4-((5-methyl-1H-pyrazol-3-yl)amino)thieno[2,3-d]pyrimidin-2-yl)amino)piperidin-1-yl)propionitrile], for which the IC50 in series [5] came out at 1.26 nM. The IC50 in series [3] was 0.45 nM. The IC50 in series [4] was 1.64 nM. For the same molecule, in series [6] (plasma, blood), the Cmax is 69.4 ng/mL, the AUC(0-t) is 143 ng·h/mL, the AUC(0-inf) stood at 145 ng·h/mL and the half-life is 1.07 h. Besides, in series [6] (plasma, blood), the mean residence time (MRT) amounted to 1.65 h and the Tmax was found to be 1 h. In series [6] (colon), the Cmax is 1500 ng/mL, the AUC(0-t) is 4240 ng·h/mL, the MRT is 4.74 h and the time of peak concentration (Tmax) was 5 h. Besides, in series [6] (ileum), the Cmax worked out at 21100 ng/mL, the AUC(0-t) was found to be 35300 ng·h/mL, the AUC(0-inf) was 35300 ng·h/mL and the half-life is 0.6 h. Also, in series [6] (ileum), the MRT was 1.23 h and the Tmax was 1 h.

In general, IC50 refers to the concentration needed to halve the response being measured. Broadly, the MRT is a mean duration of stay, worked out from the concentration-time curve. By Tmax is commonly meant the time at which the peak concentration occurs.
